Source: patent publication US10682370B2, “Topical antiviral composition containing a local anesthetic and method of making the same” (priority 2013, dated 2020)
Counter-ions that a name gives are not always drawn.

Columns and labels:
HSV-1 = conditions: in vitro; cited from earlier work
[1] = Accelerated stability of sorivudine/lidocaine cream formulas stored in 40° C./75% RH; format: physicochemical
From the text: In the above Table 3, the six (6)-month accelerated stability assay data's for both formulations, i.e. Example 8 and Example 9 (containing BHT) were stable.

[2] = administered concurrently with 5-FU; cited from earlier work
[3] = acidic environment, accelerated test
[4] = neutral environment, 6 month accelerated test

Row | Structure (SMILES) | Selectivity ratio for the inhibitory activity against HSV-1 (HSV-1) | Change of assay (in words) [1, 3] | Change of assay (in words) [1, 4] | Toxicity on concurrent administration with 5-fluorouracil (5-FU) [2] | Assay of sorivudine remaining [1, 4]
1 | Nc1nc2c(ncn2COCCO)c(=O)[nH]1 [Acyclovir, acyclovir] | about 2000 | – | – | – | –
2 | CCN(CC)CC(=O)Nc1c(C)cccc1C [lidocaine HCl, 2-(diethylamino)-N-(2,6-dimethylphenyl)-acetamide] | – | no change | almost no change | – | –
3 | O=c1[nH]c(=O)n([C@@H]2O[C@H](CO)[C@@H](O)[C@@H]2O)cc1/C=C/Br [sorivudine] | – | no change | – | major toxicity (myelosuppression) | 66%
